The target of assay [1] is Asp-2 (Homo sapiens, UniProt P56817). Put plainly: Asp-2 Inhibitory Assay. Type of assay: biochemical. As to conditions: FAM-[SEVNLDAEFK]-TAMRA substrate, pH 4.5, 1 h at room temperature, fluorescence; read-out: inhibition (Asp2), Assay (I). As to the method: (I) Asp-2 Inhibitory Assay
(§1) For each compound being assayed, in a 384 well plate, is added:—
(§2) a) 1 μl of a DMSO solution of the test compound (IC50 curve uses ten 1 in 2 serial dilutions from 500 μM).
This is prepared by diluting 2 ml of a 2 mM DMSO solution of the substrate into 400 ml of buffer (100 mM Sodium acetate pH=4.5, 1 l Milli-Q water, 0.06% Triton X-100 (0.5 ml/l), pH adjusted to 4.5 using glacial acetic acid). Aminomethyl fluorescein (FAM) and tetramethyl rhodamine (TAMRA) are fluorescent molecules which co-operate to emit fluorescence at 535 nm upon cleavage of the […] peptide.
c) 10 μl enzyme solution. This is prepared by diluting 16 ml of a 500 nM enzyme solution into 384 ml of buffer (prepared as above).
(§3) Blank wells (enzyme solution replaced by buffer) are included as controls on each plate. Wells are incubated for 1 h at room temperature and fluorescence read using a Tecan Ultra Fluorimeter/Spectrophotometer (485 nm excitation, 535 nm emission).

Assay [2] has as its target Cathepsin D (Homo sapiens, UniProt P07339). The experiment in a line: Cathepsin D Inhibitory Assay. The assay is classed as biochemical. The settings on record: FAM-[SEVNLDAEFK]-TAMRA substrate, pH 4.5, 1 h at room temperature, fluorescence; read-out: inhibition (CatD), Assay (II). As to the method: (II) Cathepsin D Inhibitory Assay
as §1, §2
This is prepared by diluting 2 ml of a 2 mM DMSO solution of the substrate into 400 ml of buffer (100 mM Sodium acetate pH=4.5, 1 l Milli-Q water, 0.06% Triton X-100 (0.5 ml/l), pH adjusted to 4.5 using glacial acetic add).
c) 10 μl enzyme solution. This is prepared by diluting 1.6 ml of a 200 unit/ml (in 10 mM HCl) enzyme solution into 398.4 ml of buffer (prepared as above).
as §3

“And” between values parts separate entries of the source, which are not always exact repeats. Identical values can stand only once. Counter-ions that a name gives are not always drawn.

Asp-2, sequence (P56817 46-501): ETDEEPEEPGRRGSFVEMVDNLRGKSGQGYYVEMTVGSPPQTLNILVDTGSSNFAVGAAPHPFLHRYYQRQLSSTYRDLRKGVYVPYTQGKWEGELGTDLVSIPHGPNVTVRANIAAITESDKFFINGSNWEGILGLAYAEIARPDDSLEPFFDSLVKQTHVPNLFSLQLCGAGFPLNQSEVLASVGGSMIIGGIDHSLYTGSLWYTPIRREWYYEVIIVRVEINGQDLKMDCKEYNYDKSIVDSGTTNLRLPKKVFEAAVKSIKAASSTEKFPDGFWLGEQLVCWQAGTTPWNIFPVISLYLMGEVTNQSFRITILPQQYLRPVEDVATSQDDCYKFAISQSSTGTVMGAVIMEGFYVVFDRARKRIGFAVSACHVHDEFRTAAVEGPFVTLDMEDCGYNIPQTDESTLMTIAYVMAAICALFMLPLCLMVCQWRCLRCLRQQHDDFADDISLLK
Cathepsin D, sequence (P07339 65-412, species assumed): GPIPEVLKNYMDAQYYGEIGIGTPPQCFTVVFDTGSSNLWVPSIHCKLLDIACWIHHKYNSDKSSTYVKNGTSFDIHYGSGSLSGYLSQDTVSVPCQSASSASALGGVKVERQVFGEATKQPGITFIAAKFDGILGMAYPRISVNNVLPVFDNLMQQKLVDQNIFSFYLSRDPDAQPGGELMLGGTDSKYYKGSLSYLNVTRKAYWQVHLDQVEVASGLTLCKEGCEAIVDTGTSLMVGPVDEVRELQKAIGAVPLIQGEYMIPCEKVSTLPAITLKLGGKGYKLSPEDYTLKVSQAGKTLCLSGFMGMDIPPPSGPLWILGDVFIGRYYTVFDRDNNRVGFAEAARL

For `C[C@H](NC[C@@H](O)[C@H](Cc1ccccc1)NC(=O)c1cc(N2CCCC2=O)cc(N(c2ccccc2)S(C)(=O)=O)c1)C(=O)NC1CCCCC1` [Example E41], the IC50 in assay [1] was 1 to 100 nM and 1 to 10 nM; in assay [2], 200 to 2500 nM and 400 to 1000 nM.
With `C#Cc1cc(C(=O)N[C@@H](Cc2ccccc2)[C@H](O)CNCc2cccc(C(F)(F)F)c2)cc(N(c2ccccc2)S(C)(=O)=O)c1` [Example E46, N-[(1S,2R)-1-Benzyl-2-hydroxy-3-(3-trifluoromethyl-benzylamino)-propyl]-ethynyl-(methanesulfonyl-phenyl-amino)-benzamide], the IC50 in assay [1] fell in the range of 1 to 100 nM; in assay [2], 200 to 2500 nM.
In the case of `CS(=O)(=O)N(c1ccccc1)c1cc(C(=O)N[C@@H](Cc2ccccc2)[C@H](O)CNCc2cccc(OC(F)(F)F)c2)cc(N2CCCC2=O)c1` [Example E55, formate salt], the IC50 in assay [1] is 1 to 100 nM and 1 to 10 nM; in assay [2], 200 to 2500 nM and 400 to 1000 nM.
With `CS(=O)(=O)N(c1cccc(C#N)c1)c1cc(C(=O)N[C@@H](Cc2ccccc2)[C@H](O)CNCc2cccc(C(F)(F)F)c2)cc(N2CCCC2=O)c1` [Example E77, formate salt], the IC50 in assay [1] was 1 to 100 nM and 1 to 10 nM; in assay [2] it was 200 to 2500 nM and 400 to 1000 nM.
Turning to `CS(=O)(=O)N(c1ccccc1)c1cccc(C(=O)N[C@@H](Cc2ccccc2)[C@H](O)CNCc2cccc(C(F)(F)F)c2)c1F` [Example E56, formate salt], the IC50 in assay [1] lay within 1 to 100 nM; in assay [2], 200 to 2500 nM.
On to `CCSc1cc(C(=O)N[C@@H](Cc2ccccc2)[C@H](O)CNCc2cccc(C(F)(F)F)c2)cc(N(c2ccccc2)S(C)(=O)=O)c1` [Example E60], for which the IC50 in assay [1] was 1 to 100 nM and 1 to 10 nM; in assay [2], 200 to 2500 nM and 400 to 1000 nM.
On to `C=C(C)c1cc(C(=O)N[C@@H](Cc2ccccc2)[C@H](O)CNCc2cccc(C(F)(F)F)c2)cc(N(c2ccccc2)S(C)(=O)=O)c1` [Example E83, N-[(1S,2R)-Benzyl-hydroxy-3-(3-trifluoromethyl-benzylamino)-propyl]-3-isopropenyl-5-(methanesulfonyl-phenyl-amino)-benzamide], for which the IC50 in assay [1] lay within 1 to 100 nM; in assay [2] it was 200 to 2500 nM.
`CS(=O)(=O)N(c1cccc(C#N)c1)c1cccc(C(=O)N[C@@H](Cc2ccccc2)[C@H](O)CNCc2cccc(C(F)(F)F)c2)c1` [Example E17, N-[(1S,2R)-1-Benzyl-2-hydroxy-3-(3-trifluoromethyl-benzylamino)-propyl]-[(3-cyano-phenyl)-methanesulfonyl-amino]-benzamide]: the values for the IC50 in assay [1] and in assay [2] were 1 to 100 nM and 200 to 2500 nM, respectively.

The values above are taken from patent US20060211740A1, “Novel compounds” (priority 2003, published 2006).
